13 molecules from ChEMBL document CHEMBL4020728 (Bioorg Med Chem, 2017) can be followed below.

In one assay the target is Carbonic anhydrase 9 (Homo sapiens, UniProt Q16790).
The target in another assay is Carbonic anhydrase 2 (Homo sapiens, UniProt P00918). Briefly: Inhibition of recombinant human carbonic anhydrase-2 assessed as reduction in CO2 hydration preincubated for 10 mins measured for 5 to 10 secs by stopped flow assay.
For the next assay, the target named is Carbonic anhydrase 1 (Homo sapiens, UniProt P00915). Description: Inhibition of recombinant human carbonic anhydrase-1 assessed as reduction in CO2 hydration preincubated for 10 mins measured for 5 to 10 secs by stopped flow assay.
Carbonic anhydrase 1, sequence (P00915 whole entry): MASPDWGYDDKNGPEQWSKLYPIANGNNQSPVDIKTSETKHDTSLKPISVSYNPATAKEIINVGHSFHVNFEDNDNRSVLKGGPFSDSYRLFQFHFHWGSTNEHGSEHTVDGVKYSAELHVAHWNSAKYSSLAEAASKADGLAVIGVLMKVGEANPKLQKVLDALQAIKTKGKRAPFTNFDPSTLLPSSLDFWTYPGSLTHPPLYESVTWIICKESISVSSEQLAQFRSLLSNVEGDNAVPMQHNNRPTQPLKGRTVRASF
In a further assay the target is Carbonic anhydrase 12 (Homo sapiens, UniProt O43570). Briefly: Inhibition of recombinant human carbonic anhydrase-12 assessed as reduction in CO2 hydration preincubated for 10 mins measured for 5 to 10 secs by stopped flow assay.
Carbonic anhydrase 12, sequence (O43570 whole entry): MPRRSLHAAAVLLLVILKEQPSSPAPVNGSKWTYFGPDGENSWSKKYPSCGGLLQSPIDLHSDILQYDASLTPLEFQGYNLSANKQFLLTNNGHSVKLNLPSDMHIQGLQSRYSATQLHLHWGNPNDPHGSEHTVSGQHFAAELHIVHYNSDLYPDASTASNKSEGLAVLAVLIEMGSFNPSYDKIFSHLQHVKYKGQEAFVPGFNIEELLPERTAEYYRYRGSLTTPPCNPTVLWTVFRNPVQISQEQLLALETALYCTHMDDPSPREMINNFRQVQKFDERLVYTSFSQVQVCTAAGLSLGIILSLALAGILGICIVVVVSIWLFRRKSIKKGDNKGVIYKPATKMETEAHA

Molecules are shown by their SMILES.

The Ki is a dissociation constant, usually derived from enzyme kinetics or from competition with a known ligand.

Description for Carbonic anhydrase 9: Inhibition of recombinant human carbonic anhydrase-9 assessed as reduction in CO2 hydration preincubated for 10 mins measured for 5 to 10 secs by stopped flow assay

For the molecule `CC#CCN1C(=O)c2ccccc2S1(=O)=O`, the Ki on Carbonic anhydrase 9 is 0.563 µM; on Carbonic anhydrase 2 it was more than 10 µM; on Carbonic anhydrase 1 it was more than 10 µM.
Regarding `CCCCCNS(=O)(=O)c1ccccc1C(=O)O`, the Ki on Carbonic anhydrase 9 is 0.392 µM; on Carbonic anhydrase 2 it was more than 10 µM; on Carbonic anhydrase 1, more than 10 µM.
In the case of `CCCCCN1C(=O)c2ccccc2S1(=O)=O`, the Ki on Carbonic anhydrase 9 is 0.102 µM; on Carbonic anhydrase 2 it was more than 10 µM; at Carbonic anhydrase 1, more than 10 µM; on Carbonic anhydrase 12 it was 0.034 µM.
On to `O=C(O)c1ccccc1S(=O)(=O)NCc1ccc(Br)cc1`, for which the Ki on Carbonic anhydrase 9 is 0.277 µM; at Carbonic anhydrase 1 it was more than 10 µM.
Take `CC#CCNS(=O)(=O)c1ccccc1C(=O)O`: the Ki at Carbonic anhydrase 9 is 0.25 µM; at Carbonic anhydrase 2, more than 10 µM; at Carbonic anhydrase 1, more than 10 µM.
In the case of `O=C(O)c1ccccc1S(=O)(=O)NCc1ccccc1`, the Ki was 0.342 µM at Carbonic anhydrase 9 and more than 10 µM on Carbonic anhydrase 1.
In the case of `O=C1c2ccccc2S(=O)(=O)N1CCc1ccccc1`, the Ki is 0.0761 µM at Carbonic anhydrase 9, more than 10 µM at Carbonic anhydrase 2, more than 10 µM at Carbonic anhydrase 1 and 0.0104 µM at Carbonic anhydrase 12.
With `CCCCN1C(=O)c2ccccc2S1(=O)=O`, the inhibition constant (Ki) on Carbonic anhydrase 9 was 0.164 µM; on Carbonic anhydrase 2, more than 10 µM; on Carbonic anhydrase 1, more than 10 µM.
Take `CCCNS(=O)(=O)c1ccccc1C(=O)O`: the Ki on Carbonic anhydrase 9 is 0.481 µM; at Carbonic anhydrase 2, more than 10 µM; at Carbonic anhydrase 1 it was more than 10 µM.
On to `CCCN1C(=O)c2ccccc2S1(=O)=O`, for which the Ki is 0.209 µM on Carbonic anhydrase 9, more than 10 µM at Carbonic anhydrase 2 and more than 10 µM at Carbonic anhydrase 1.
Take `CCCCNS(=O)(=O)c1ccccc1C(=O)O`: the results for the Ki on Carbonic anhydrase 9, at Carbonic anhydrase 2 and at Carbonic anhydrase 1 were 0.436 µM, more than 10 µM and more than 10 µM, respectively.
Take `O=C1c2ccccc2S(=O)(=O)N1Cc1ccccc1`: the Ki at Carbonic anhydrase 9 is 0.0892 µM; at Carbonic anhydrase 2, more than 10 µM; at Carbonic anhydrase 1, more than 10 µM.
In the case of `CCN1C(=O)c2ccccc2S1(=O)=O`, the Ki at Carbonic anhydrase 9 is 0.236 µM; on Carbonic anhydrase 2 it was more than 10 µM; on Carbonic anhydrase 1, more than 10 µM.
